Results on one molecule are retold here after patent US20090169652A1, “Personal Care Compositions” (priority 2007, published 2009).

For experiment [1], the system named is Xgene human skin equivalent culture model. In words: collagen expression in Xgene human skin equivalent culture model. In kind it is cell-based.
The test system of a further experiment is skin. In words: clinical study of skin condition. The settings on record: clinical study by applicant. In kind it is in vivo.
The subject of experiment [2] is MatTek human skin equivalent culture model. In words: collagen expression in MatTek human skin equivalent culture model. In kind it is cell-based.

On to `CC(=O)C1C(=O)C=C(C)OC1=O` (stereo not shown) [SDA, sodium dehydroacetic acid], for which the collagen expression result in experiment [1] and in experiment [2] was “up-regulated collagen expression” each time. Moreover, the “appearance of fine lines and wrinkles” value in the experiment on skin is “unexpected improvement in the appearance of fine lines and wrinkles”. In addition, in the experiment on skin, the “skin condition related to reduced oil” value is “expected improvements in skin condition related to reduced oil”.
